Laboratory results from ChEMBL document CHEMBL3751749, “Identification of new hit scaffolds by [sequence]-guided virtual screening” (Medchemcomm, 2015).
Calls of active or inactive are those of the source. The calls are words filed in the database; no cut-off is given here.

Key:
[1] = target: T1, Cyclin-dependent kinase 2 (Homo sapiens, UniProt P24941); experiment: Binding affinity to N-terminal His-tagged human CDK2 expressed in Escherichia coli BL21-AI by STD-NMR analysis
[2] = target: T1, Cyclin-dependent kinase 2; experiment: Binding affinity to human CDK2 by isothermal titration calorimetric analysis
Homo sapiens [3] = species: Homo sapiens; experiment: Inhibition of human PKA assessed as enzyme activity using PKA peptide as substrate at 100 uM incubated for 120 mins in presence of 33-P ATP by kinase phosphorylation assay; parameters: scale not given: the % may be the effect or the level left
[4] = target: T2, CDK2/Cyclin A2 (Homo sapiens) (UniProt P24941+P20248); experiment: Inhibition of recombinant full-length human Cdk2/cyclin A assessed as enzyme activity using histone H1 as substrate at 100 uM incubated for 120 mins in presence of 33-P ATP by kinase phosphorylation assay; type: protein-complex assay; parameters: scale not given: the % may be the effect or the level left
[5] = target: T3, Cyclin-dependent kinase 2/cyclin E1 (Homo sapiens) (UniProt P24864+P24941); experiment: Inhibition of recombinant full-length human Cdk2/cyclin E assessed as enzyme activity using histone H1 as substrate at 100 uM incubated for 120 mins in presence of 33-P ATP by kinase phosphorylation assay; type: protein-complex assay; parameters: scale not given: the % may be the effect or the level left
CDK2/Cyclin A2 = CDK2/Cyclin A2 (Homo sapiens, UniProt P24941); experiment: Inhibition of recombinant full-length human Cdk2/cyclin A using histone H1 as substrate incubated for 120 mins in presence of 33-P ATP by kinase phosphorylation assay; type: protein-complex assay
[6] = target: T2, CDK2/Cyclin A2 (Homo sapiens); experiment: Inhibition of recombinant full-length human Cdk2/cyclin A assessed as enzyme activity using histone H1 as substrate at 5 uM incubated for 120 mins in presence of 33-P ATP by kinase phosphorylation assay; type: protein-complex assay; parameters: scale not given: the % may be the effect or the level left
Homo sapiens [7] = species: Homo sapiens; experiment: Inhibition of human PKA assessed as enzyme activity using PKA peptide as substrate at 5 uM incubated for 120 mins in presence of 33-P ATP by kinase phosphorylation assay; parameters: scale not given: the % may be the effect or the level left
[8] = target: ALK tyrosine kinase receptor (Homo sapiens) (UniProt Q9UM73); experiment: Inhibition of human ALK assessed as enzyme activity using pEY as substrate at 5 uM incubated for 120 mins in presence of 33-P ATP by kinase phosphorylation assay; parameters: scale not given: the % may be the effect or the level left
[9] = target: T3, Cyclin-dependent kinase 2/cyclin E1 (Homo sapiens); experiment: Inhibition of recombinant full-length human Cdk2/cyclin E assessed as enzyme activity using histone H1 as substrate at 5 uM incubated for 120 mins in presence of 33-P ATP by kinase phosphorylation assay; type: protein-complex assay; parameters: scale not given: the % may be the effect or the level left

Sequence of ALK tyrosine kinase receptor (Homo sapiens) (Q9UM73 19-1620 limits assumed): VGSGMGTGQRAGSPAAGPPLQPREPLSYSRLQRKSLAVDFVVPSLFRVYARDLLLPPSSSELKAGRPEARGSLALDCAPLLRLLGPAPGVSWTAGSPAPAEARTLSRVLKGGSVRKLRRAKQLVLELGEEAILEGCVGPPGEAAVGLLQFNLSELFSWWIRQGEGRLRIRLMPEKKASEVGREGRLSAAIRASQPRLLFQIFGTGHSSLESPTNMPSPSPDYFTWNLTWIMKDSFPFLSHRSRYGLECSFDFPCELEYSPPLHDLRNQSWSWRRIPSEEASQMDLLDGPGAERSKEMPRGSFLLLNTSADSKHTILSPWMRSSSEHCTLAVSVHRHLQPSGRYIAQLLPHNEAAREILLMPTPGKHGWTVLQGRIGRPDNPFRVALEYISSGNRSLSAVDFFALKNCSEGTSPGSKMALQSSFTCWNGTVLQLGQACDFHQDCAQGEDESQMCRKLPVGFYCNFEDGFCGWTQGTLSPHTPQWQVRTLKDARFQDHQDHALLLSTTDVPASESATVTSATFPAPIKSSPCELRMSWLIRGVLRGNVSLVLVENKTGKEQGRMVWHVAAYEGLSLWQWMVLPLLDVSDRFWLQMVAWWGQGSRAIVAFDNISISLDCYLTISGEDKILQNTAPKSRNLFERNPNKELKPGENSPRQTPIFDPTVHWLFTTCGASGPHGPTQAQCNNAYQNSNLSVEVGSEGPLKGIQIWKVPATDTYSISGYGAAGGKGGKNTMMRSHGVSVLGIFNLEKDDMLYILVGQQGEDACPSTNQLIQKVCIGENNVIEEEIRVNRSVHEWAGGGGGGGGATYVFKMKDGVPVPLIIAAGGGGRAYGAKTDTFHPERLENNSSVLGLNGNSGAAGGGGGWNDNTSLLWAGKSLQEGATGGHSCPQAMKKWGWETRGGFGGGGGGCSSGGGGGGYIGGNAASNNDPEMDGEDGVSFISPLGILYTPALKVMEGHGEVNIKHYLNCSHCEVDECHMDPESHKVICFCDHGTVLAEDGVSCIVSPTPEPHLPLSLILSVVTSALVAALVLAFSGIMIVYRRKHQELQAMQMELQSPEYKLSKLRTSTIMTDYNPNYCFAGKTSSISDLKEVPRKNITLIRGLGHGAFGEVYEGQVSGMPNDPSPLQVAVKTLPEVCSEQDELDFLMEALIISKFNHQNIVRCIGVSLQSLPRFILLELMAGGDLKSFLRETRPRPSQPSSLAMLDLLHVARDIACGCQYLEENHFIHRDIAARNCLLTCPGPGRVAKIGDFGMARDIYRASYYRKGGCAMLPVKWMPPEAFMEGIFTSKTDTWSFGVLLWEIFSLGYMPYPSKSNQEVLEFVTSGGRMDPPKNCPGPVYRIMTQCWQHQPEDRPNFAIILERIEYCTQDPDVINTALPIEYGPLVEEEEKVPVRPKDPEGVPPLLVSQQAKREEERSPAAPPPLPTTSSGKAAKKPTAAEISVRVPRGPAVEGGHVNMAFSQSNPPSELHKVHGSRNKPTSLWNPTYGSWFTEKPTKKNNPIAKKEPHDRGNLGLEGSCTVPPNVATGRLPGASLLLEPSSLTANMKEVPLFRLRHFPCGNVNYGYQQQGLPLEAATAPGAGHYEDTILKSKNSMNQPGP

SMILES	Activity [1]	Kd [2]	also measured
CNc1ncnc2ccc([N+](=O)[O-])cc12	Active	208 µM	–
Cc1ccc(Cn2cc(-n3c(-c4ccc(Cn5cccn5)cc4)n[nH]c3=S)cn2)cc1	inactive	–	–
Cc1ccc(Cn2cc(-n3c(-c4ccc(Cn5cc(Cl)cn5)cc4)n[nH]c3=S)cn2)cc1	inactive	–	–
Cc1ccc(Cn2cc(-n3c(-c4ccc(Cn5nc(C)c(Cl)c5C)o4)n[nH]c3=S)cn2)cc1	inactive	–	–
CC(C)=CCNc1ncnc2[nH]cnc12	Active	–	–
CC(C)=CCNc1ncnc2nc[nH]c12	–	35 µM	–
Cc1ccc(Cn2nccc2-n2c(-c3cc(C)n(C)n3)n[nH]c2=S)cc1	Active	–	Activity (Homo sapiens [3]): 99%; Activity [4]: 69%; Activity [5]: 96%; IC50 (CDK2/Cyclin A2): 1000 µM
N=C(N)NCCNS(=O)(=O)c1cccc2cnccc12	Active	286 µM	–
Cc1nc2[nH]n(-c3ccccc3)c(=O)c2c2c1c(=O)oc1ccc(Br)cc12	–	–	Activity [6]: 35%; Activity (Homo sapiens [7]): 115%; Activity [8]: 87%; Activity [9]: 95%; IC50 (CDK2/Cyclin A2): 2.6 µM
c1ccc(CNc2ncnc3[nH]cnc23)cc1	Active	–	–
c1ccc(CNc2ncnc3nc[nH]c23)cc1 [6-BENZYLAMINOPURINE]	–	62 µM	–
Cc1ccc(Cn2cc(-n3c(-c4ccc(Cn5nc(C)cc5C)o4)n[nH]c3=S)cn2)cc1	inactive	–	–
O=S(=O)(c1cccc2cnccc12)N1CCCNCC1	Active	–	–
Nc1ncnc2c1ncn2[C@@H]1O[C@H](CO)[C@@H](O)[C@H]1O [ADENOSINE]	–	184 µM	–
